Values joined by “and” are separate entries in the source; they are usually repeats but may differ in a detail not shown here. Equal values may be shown once. “Also recorded” adds a separate entry of the source. Read-outs that look alike come from different tables or passages of the source.
Key:
[1] = system: MERS-CoV; assay: microbe, parasite or virus in culture; assay type: cell-based; conditions: Middle East respiratory syndrome-related coronavirus, Huh-7, 24 h, read-out: IC50 against MERS-CoV
[2] = system: IAV NS1 mRNA; assay type: cell-based, influenza A virus
[3] = system: A549 cells; conditions: antiviral concentrations, 24 h
[4] = system: Ebola virus Makona strain (EBOV); assay: microbe, parasite or virus in culture; assay type: cell-based; conditions: Zaire ebolavirus, Huh-7, 48 h, read-out: IC50 against EBOV
[5] = system: Influenza virus; assay: organism not typed; assay type: cell-based, influenza A virus; conditions: for time of addition: inhibition of IAV when drug added 2 h after infection: +2 h versus -2 h and 0 h; for IC50: A549, 24 h, read-out: IC50 against IAV; for antiviral activity against IAV infection: screening, A549 cells
[6] = system: Marburg virus Angola strain (MARV); assay: organism not typed; assay type: cell-based; conditions: Huh-7, 48 h, read-out: IC50 against MARV
[7] = system: IAV NS1 protein; assay type: cell-based, influenza A virus
[8] = system: Huh7 cells; conditions: antiviral concentrations, 24 h
[9] = target: WDR61 (Homo sapiens, UniProt Q9GZS3); assay: Surface Plasmon Resonance with pure WDR61 protein
[10] = system: SARS2; assay type: cell-based, SARS-CoV-2; conditions: for Percentage Inhibition Average 1 μM / Screening data (Relative infection to DMSO controls) Average 1 μM: SARS2, 1 μM; for Screening data (Relative infection to DMSO controls) Average 1 μM / Screening data (Relative infection to DMSO controls) Average 5 μM / Screening data (Relative infection to DMSO controls) Average 10 μM / Screening data (Relative infection to DMSO controls) Average 25 μM / Screening data (Relative infection to DMSO controls) Average 50 μM / Average (relative infection to DMSO over the 5 tested concentrations): 100=DMSO control; for Percentage Inhibition Average 5 μM / Screening data (Relative infection to DMSO controls) Average 5 μM: SARS2, 5 μM; for Percentage Inhibition Average 10 μM / Screening data (Relative infection to DMSO controls) Average 10 μM: SARS2, 10 μM; for Percentage Inhibition Average 25 μM / Screening data (Relative infection to DMSO controls) Average 25 μM: SARS2, 25 μM; for Percentage Inhibition Average 50 μM / Screening data (Relative infection to DMSO controls) Average 50 μM: SARS2, 50 μM; for Average (relative infection to DMSO over the 5 tested concentrations): SARS2, average over 1 to 50 uM; for Percentage Infection Relative to Appropriate DMSO Control with Avg Background Subtraction: Greiner Celigo plates; for Infection Data, Average, Mean: average of Exp 1-3 (SMW475, SMW477, SMW478)
[11] = system: cells (nuclei count); conditions: for Relative cell count to DMSO controls, Average 1 μM / Relative cell count to DMSO controls, Average 5 μM / Relative cell count to DMSO controls, Average 10 μM / Relative cell count to DMSO controls, Average 25 μM / Relative cell count to DMSO controls, Average 50 μM: toxicity data, 100=DMSO control; for Relative cell count to DMSO controls, Average (for correlation analysis): average value over the 5 tested concentrations (1 to 50 uM); for Toxicity Data, Average, Mean: average of Exp 1-3 (SMW475, SMW477, SMW478)
[12] = system: SARS-CoV-2; assay type: cell-based
[13] = system: SARS-CoV; assay type: cell-based; conditions: 24 h
[14] = system: IAV RNA; assay: Multi-segment RT-PCR (M-RTPCR) of IAV segments in A549 cells; assay type: cell-based, influenza A virus
[15] = system: SARS-CoV-2 mRNA (N, RdRp); assay type: cell-based; conditions: two gene targets (N, RdRp)

Structure (SMILES): COc1ccc(CNCCc2ccccc2F)c(OCC(O)CN2CCN(C)CC2)c1 (stereo not drawn) [UMB18, 1-[2-({[2-(2-fluorophenyl)ethyl]amino}methyl)-5-methoxyphenoxy]-3-(4-methyl-1-piperazinyl)-2-propanol]
- IC50 [1]: ~5 µM
- IAV NS1 mRNA [2]: marked reduction in mRNA
- toxicity by CellTiter-Glo assay [3]: minimal toxicity
- IC50 [4]: ~5 µM
- 10 μM treatment, Average ([5]; 10 μM treatment, average of replicates): 11250 and 1250 and 2000 and 18000
- 10 μM treatment ([5]; 10 μM treatment, replicate 2): 12000 and 1000 and 35000
- 10 μM treatment ([5]; 10 μM treatment, replicate 3): 1000 and 2000
- 10 μM treatment ([5]; 10 μM treatment, replicate 4): 5000 and 1000
- 50 μM treatment Average ([5]; 50 μM compound, average of replicates): 1000 and 333.3 and 0 (2×)
- 50 μM treatment ([5]; 50 μM compound, replicate 1, DMSO (0.5%) control run per batch): 0
- 50 μM treatment ([5]; 50 μM compound, replicate 2): 3000 and 0 (2×)
- 50 μM treatment (third value column) ([5]; 50 μM compound, replicate 3): 0 and 1000
- 50 μM treatment (fourth value column) ([5]; 50 μM compound, replicate 4): 1000
- time of addition: inhibition of IAV when drug added 2 h after infection [5]: marked reduction in the level of inhibition
- IC50 [5]: ~5 µM
- antiviral activity against IAV infection [5]: showed antiviral activity against influenza
- IC50 [6]: ~16 µM
- NS1 protein by western blot [7]: lack of NS1 protein
- toxicity by CellTiter-Glo assay [8]: minimal toxicity

Structure (SMILES): CN1CCN(CC(O)COc2c(CNCCc3ccccc3F)cccc2C2CCCCC2)CC1 (stereo not drawn) [SILCS4]
- direct binding to WDR61 by SPR [9]: binding directly to WDR61
- Percentage Inhibition Average 1 μM [10]: 17.51%
- Screening data (Relative infection to DMSO controls) Average 1 μM [10]: 82.49
- Percentage Inhibition Average 5 μM [10]: 59.94%
- Screening data (Relative infection to DMSO controls) Average 5 μM [10]: 40.06
- Percentage Inhibition Average 10 μM [10]: 86.21%
- Screening data (Relative infection to DMSO controls) Average 10 μM [10]: 13.79
- Percentage Inhibition Average 25 μM [10]: 81.29%
- Screening data (Relative infection to DMSO controls) Average 25 μM [10]: 18.71
- Percentage Inhibition Average 50 μM [10]: 90.83%
- Screening data (Relative infection to DMSO controls) Average 50 μM [10]: 9.17
- Average (relative infection to DMSO over the 5 tested concentrations) [10]: 32.84
- Relative cell count to DMSO controls, Average 1 μM [11]: 116.22
- Relative cell count to DMSO controls, Average 5 μM [11]: 123.91
- Relative cell count to DMSO controls, Average 10 μM [11]: 122.04
- Relative cell count to DMSO controls, Average 25 μM [11]: 3.91
- Relative cell count to DMSO controls, Average 50 μM [11]: 2.18
- Toxicity Data, Average, Mean (relative to DMSO control) ([11]; Average of Exp 1-3, 1 uM): 116.22%
- Toxicity Data, Average, Mean (relative to DMSO control) ([11]; Average of Exp 1-3, 5 uM): 123.91%
- Toxicity Data, Average, Mean (relative to DMSO control) ([11]; Average of Exp 1-3, 10 uM): 122.04%
- Toxicity Data, Average, Mean (relative to DMSO control) ([11]; Average of Exp 1-3, 25 uM): 3.91%
- Toxicity Data, Average, Mean (relative to DMSO control) ([11]; Average of Exp 1-3, 50 uM): 2.18%
- Relative cell count to DMSO controls, Average (for correlation analysis) [11]: 73.65

Structure (SMILES): COc1ccc(CNCCc2ccccc2C)c(OCC(O)CN2CCN(C)CC2)c1 (stereo not drawn) [UMB18-2]
- IC50 [1]: ~5 µM
- inhibition of SARS-CoV-2 virus production by TCID50 [12]: capable of inhibiting virus production; also recorded: less so
- inhibition of SARS-CoV ([13]; 10 μM): inhibition, but to a lesser extent
- reduction in virus production ([13]; 50 μM): 1 log
- IAV NS1 mRNA [2]: marked reduction in mRNA
- IAV RNA amplified by M-RTPCR [14]: total loss of IAV RNA
- SARS-CoV-2 mRNA production [15]: capable of inhibiting SARS-CoV-2 mRNA production
- time of addition: inhibition of IAV when drug added 2 h after infection [5]: marked reduction in the level of inhibition
- IC50 [5]: ~5 µM
- antiviral activity against IAV infection [5]: capable of inhibiting IAV infection
- NS1 protein by western blot [7]: lack of NS1 protein

Structure (SMILES): CN(C)CCN(Cc1cocn1)Cc1cccs1 [SILCS35]
- direct binding to WDR61 by SPR [9]: binding directly to WDR61
- Percentage Infection Relative to Appropriate DMSO Control with Avg Background Subtraction ([10]; Exp 1 (SMW475), 1 uM): 90.30% and 94.24% and 95.59%
- Percentage Infection Relative to Appropriate DMSO Control with Avg Background Subtraction ([10]; Exp 1 (SMW475), 5 uM): 93.18% and 101.74% and 91.54%
- Percentage Infection Relative to Appropriate DMSO Control with Avg Background Subtraction ([10]; Exp 1 (SMW475), 10 uM): 105.47% and 116.87% and 111.43%
- Percentage Infection Relative to Appropriate DMSO Control with Avg Background Subtraction ([10]; Exp 1 (SMW475), 25 uM): 79.86% and 56.98% and 87.77%
- Percentage Infection Relative to Appropriate DMSO Control with Avg Background Subtraction ([10]; Exp 1 (SMW475), 50 uM): 83.26% and 106.28% and 78.51%
- Percentage Infection Relative to Appropriate DMSO Control with Avg Background Subtraction ([10]; Exp 2 (SMW477), 1 uM): 131.21% and 119.10% and 117.97%
- Percentage Infection Relative to Appropriate DMSO Control with Avg Background Subtraction ([10]; Exp 2 (SMW477), 5 uM): 138.25% and 128.36% and 147.80%
- Percentage Infection Relative to Appropriate DMSO Control with Avg Background Subtraction ([10]; Exp 2 (SMW477), 10 uM): 155.83% and 113.76% and 119.79%
- Percentage Infection Relative to Appropriate DMSO Control with Avg Background Subtraction ([10]; Exp 2 (SMW477), 25 uM): 125.42% and 107.58% and 104.40%
- Percentage Infection Relative to Appropriate DMSO Control with Avg Background Subtraction ([10]; Exp 2 (SMW477), 50 uM): 109.53% and 98.67% and 105.03%
- Percentage Infection Relative to Appropriate DMSO Control with Avg Background Subtraction ([10]; Exp 3 (SMW478), 1 uM): 105.76% and 80.57% and 90.16%
- Percentage Infection Relative to Appropriate DMSO Control with Avg Background Subtraction ([10]; Exp 3 (SMW478), 5 uM): 134.19% and 78.79% and 94.59%
- Percentage Infection Relative to Appropriate DMSO Control with Avg Background Subtraction ([10]; Exp 3 (SMW478), 10 uM): 151.59% and 95.94% and 77.50%
- Percentage Infection Relative to Appropriate DMSO Control with Avg Background Subtraction ([10]; Exp 3 (SMW478), 25 uM): 126.08% and 121.76% and 139.01%
- Percentage Infection Relative to Appropriate DMSO Control with Avg Background Subtraction ([10]; Exp 3 (SMW478), 50 uM): 140.10% and 158.92% and 157.74%
- Percentage Inhibition Average 1 μM [10]: −2.77%
- Screening data (Relative infection to DMSO controls) Average 1 μM [10]: 102.77
- Percentage Inhibition Average 5 μM [10]: −12.05%
- Screening data (Relative infection to DMSO controls) Average 5 μM [10]: 112.05
- Percentage Inhibition Average 10 μM [10]: −16.46%
- Screening data (Relative infection to DMSO controls) Average 10 μM [10]: 116.46
- Percentage Inhibition Average 25 μM [10]: −5.43%
- Screening data (Relative infection to DMSO controls) Average 25 μM [10]: 105.43
- Percentage Inhibition Average 50 μM [10]: −15.34%
- Screening data (Relative infection to DMSO controls) Average 50 μM [10]: 115.34
- Average (relative infection to DMSO over the 5 tested concentrations) [10]: 110.41
- Infection Data, Average, Mean ([10]; n 9, 1 uM): 102.77%
- Infection Data, Average, Mean ([10]; n 9, 5 uM): 112.05%
- Infection Data, Average, Mean ([10]; n 9, 10 uM): 116.46%
- Infection Data, Average, Mean ([10]; n 9, 25 uM): 105.43%
- Infection Data, Average, Mean ([10]; n 9, 50 uM): 115.34%
- Relative cell count to DMSO controls, Average 1 μM [11]: 105.31
- Relative cell count to DMSO controls, Average 5 μM [11]: 100.64
- Relative cell count to DMSO controls, Average 10 μM [11]: 89.77
- Relative cell count to DMSO controls, Average 25 μM [11]: 93.31
- Relative cell count to DMSO controls, Average 50 μM [11]: 60.5
- Toxicity Data, Average, Mean ([11]; n 9, 1 uM): 105.31%
- Toxicity Data, Average, Mean ([11]; n 9, 5 uM): 100.64%
- Toxicity Data, Average, Mean ([11]; n 9, 10 uM): 89.77%
- Toxicity Data, Average, Mean ([11]; n 9, 25 uM): 93.31%
- Toxicity Data, Average, Mean ([11]; n 9, 50 uM): 60.50%
- Relative cell count to DMSO controls, Average (for correlation analysis) [11]: 89.91

Source: patent US20240132484A1, “BROAD SPECTRUM ANTIVIRAL COMPOUNDS TARGETING THE SKI COMPLEX” (priority 2020, published 2024)
